In patent US20040006236A1, “Diaminopropionic acid derivatives” (priority 1999, published 2004):

Experiments:
[1] = tested on: cell-surface Mac-1 adhesion to immobilized fibrinogen (HL-60 cells); assay: Mac-1/Fibrinogen cell-based screening assay; design: species or system human; details: Homo sapiens, HL-60, HL-60 cells; read-out: Mac-1/Fgn Cell based Assay IC50
Summary of the method: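 Wells coated with fibrinogen and blocked with PVP. Labeled HL-60 cells (2×10^6 cells/mL in RPMI/0.05% BSA/0.2 mM MnCl2) preincubated with DMSO-diluted compounds for 10 min at 37° C, then left to adhere 30 min at 37° C/5% CO2. Unbound cells washed off with TBS.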

[2] = target: T1, LFA-1 binding to immobilized ICAM-1 (Homo sapiens, UniProt P05107+P20701); assay: LFA-1/ICAM-1 protein-protein assay (solid-phase ELISA); details: read-out: LFA-1/ICAM-1 Protein-Protein Assay IC50
T1 construct: made in house; host or cells: transfected 293 cells (LFA-1)
Summary of the method: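 Human 5dICAM-Ig (ICAM-1 extracellular domain–IgG Fc) coated on plates; membrane-bound LFA-1 from transfected 293 cells (280 ng/mL) added with compound in Mn2+-containing HEPES buffer pH 7.2, 2 h at 37° C. Bound LFA-1 detected via anti-β2 antibody and HRP/TMB at 450 nm; IC50s determined.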

T1 sequence (P20701 26-1170): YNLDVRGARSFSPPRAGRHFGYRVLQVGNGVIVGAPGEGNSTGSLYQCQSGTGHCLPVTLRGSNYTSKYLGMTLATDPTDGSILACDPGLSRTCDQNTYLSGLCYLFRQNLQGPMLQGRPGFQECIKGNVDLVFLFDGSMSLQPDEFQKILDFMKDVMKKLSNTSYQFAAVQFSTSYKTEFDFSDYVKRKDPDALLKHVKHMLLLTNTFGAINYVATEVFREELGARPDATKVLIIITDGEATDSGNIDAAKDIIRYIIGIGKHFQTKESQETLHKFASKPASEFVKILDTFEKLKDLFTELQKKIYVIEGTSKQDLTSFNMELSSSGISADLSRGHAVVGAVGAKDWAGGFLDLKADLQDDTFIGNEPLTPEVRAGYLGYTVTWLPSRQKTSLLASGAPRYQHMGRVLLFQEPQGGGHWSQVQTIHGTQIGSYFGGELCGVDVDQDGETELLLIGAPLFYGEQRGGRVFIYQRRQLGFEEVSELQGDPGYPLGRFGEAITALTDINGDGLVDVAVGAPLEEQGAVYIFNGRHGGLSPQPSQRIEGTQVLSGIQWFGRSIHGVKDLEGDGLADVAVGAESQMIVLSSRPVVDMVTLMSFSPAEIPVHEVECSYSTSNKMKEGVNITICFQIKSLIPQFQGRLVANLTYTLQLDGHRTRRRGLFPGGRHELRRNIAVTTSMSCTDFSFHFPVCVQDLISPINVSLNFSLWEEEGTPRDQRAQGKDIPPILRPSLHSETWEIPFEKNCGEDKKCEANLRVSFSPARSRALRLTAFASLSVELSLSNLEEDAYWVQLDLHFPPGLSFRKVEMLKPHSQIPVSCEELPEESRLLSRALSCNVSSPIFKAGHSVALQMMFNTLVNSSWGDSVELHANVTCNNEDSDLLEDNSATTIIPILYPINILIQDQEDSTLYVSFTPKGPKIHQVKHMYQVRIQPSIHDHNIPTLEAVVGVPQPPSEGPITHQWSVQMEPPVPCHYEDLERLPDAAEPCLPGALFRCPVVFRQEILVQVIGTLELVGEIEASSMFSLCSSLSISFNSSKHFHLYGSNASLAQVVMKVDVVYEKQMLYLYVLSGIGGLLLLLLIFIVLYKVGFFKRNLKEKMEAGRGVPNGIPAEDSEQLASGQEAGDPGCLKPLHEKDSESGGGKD
T1 sequence (P05107 23-769): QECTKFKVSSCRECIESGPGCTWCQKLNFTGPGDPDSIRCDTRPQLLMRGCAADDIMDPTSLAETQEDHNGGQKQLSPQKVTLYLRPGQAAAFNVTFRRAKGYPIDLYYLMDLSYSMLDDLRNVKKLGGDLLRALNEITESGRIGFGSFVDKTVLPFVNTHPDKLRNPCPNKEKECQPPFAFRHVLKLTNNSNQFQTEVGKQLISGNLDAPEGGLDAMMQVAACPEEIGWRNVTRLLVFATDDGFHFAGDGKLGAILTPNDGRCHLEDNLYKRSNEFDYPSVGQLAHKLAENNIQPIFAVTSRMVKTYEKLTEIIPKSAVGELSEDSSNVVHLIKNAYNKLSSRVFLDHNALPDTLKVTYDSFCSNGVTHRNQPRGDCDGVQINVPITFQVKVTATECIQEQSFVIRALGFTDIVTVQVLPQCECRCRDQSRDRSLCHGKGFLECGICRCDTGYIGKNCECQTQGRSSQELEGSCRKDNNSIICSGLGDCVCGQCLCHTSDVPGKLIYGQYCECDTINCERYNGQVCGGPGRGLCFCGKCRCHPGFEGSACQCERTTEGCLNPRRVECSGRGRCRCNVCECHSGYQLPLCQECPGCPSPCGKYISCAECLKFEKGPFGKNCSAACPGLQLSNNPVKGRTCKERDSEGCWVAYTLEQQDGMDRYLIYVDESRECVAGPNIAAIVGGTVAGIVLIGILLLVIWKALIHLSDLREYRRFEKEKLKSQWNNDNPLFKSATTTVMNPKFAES

| IC50 [1] [nM] | IC50 [2] [nM] | Compound |
| --- | --- | --- |
| 43 | 1.2 | COc1cccc(C(=O)NC[C@H](NC(=O)c2ccc(C(=O)NCc3cccc(O)c3)cc2Cl)C(=O)O)c1 [Example 76, N-[2-chloro-4-[[[(3-hydroxyphenyl)methyl]amino]-carbonyl]benzoyl]-3-(3-methoxybenzoylamino)-L-alanine] |
|  | 3.1 | O=C1CC[C@@H](C(=O)NC[C@H](NC(=O)c2ccc(C(=O)NCc3cccc(O)c3)cc2Cl)C(=O)O)O1 [Example 96] |
|  | 1.9 | O=C(NCc1cccc(O)c1)c1ccc(C(=O)N[C@@H](CNC(=O)C2CC2)C(=O)O)c(Cl)c1 [Example 97] |
|  | 7.5 | O=C(NCc1cccc(O)c1)c1ccc(C(=O)N[C@@H](CNC(=O)C2(c3ccccc3)CC2)C(=O)O)c(Cl)c1 [Example 99] |
|  | 2.9 | O=C(NCc1cccc(O)c1)c1ccc(C(=O)N[C@@H](CNC(=O)C2CCC2)C(=O)O)c(Cl)c1 [Example 100] |
| 79 | 1.9 | O=C(NCc1cccc(O)c1)c1ccc(C(=O)N[C@@H](CNC(=O)C2CCCC2)C(=O)O)c(Cl)c1 [Example 101] |
|  | 2.2 | COCCC1(C(=O)NC[C@H](NC(=O)c2ccc(C(=O)NCc3cccc(O)c3)cc2Cl)C(=O)O)CCCC1 [Example 102] |
| 123 | 1.6 | O=C(NCc1cccc(O)c1)c1ccc(C(=O)N[C@@H](CNC(=O)C2(c3ccccc3)CCCC2)C(=O)O)c(Cl)c1 [Example 103] |
| 82 | 3.5 | O=C(NCc1cccc(O)c1)c1ccc(C(=O)N[C@@H](CNC(=O)C2CCCCC2)C(=O)O)c(Cl)c1 [Example 104] |
| 151 | 1.9 | CC1(C(=O)NC[C@H](NC(=O)c2ccc(C(=O)NCc3cccc(O)c3)cc2Cl)C(=O)O)CCCCC1 [Example 105] |
|  | 3.7 | O=C(NCc1cccc(O)c1)c1ccc(C(=O)N[C@@H](CNC(=O)[C@H](CC2CCCCC2)n2cccc2)C(=O)O)c(Cl)c1 [Example 110] |
|  | 2 | Cc1noc(C)c1CCC(=O)NC[C@H](NC(=O)c1ccc(C(=O)NCc2cccc(O)c2)cc1Cl)C(=O)O [Example 111] |
| 161 | 1.5 | O=C(CCN1CCCCC1)NC[C@H](NC(=O)c1ccc(C(=O)NCc2cccc(O)c2)cc1Cl)C(=O)O [Example 112] |
|  | 1.7 | C/C=C/C(=O)NC[C@H](NC(=O)c1ccc(C(=O)NCc2cccc(O)c2)cc1Cl)C(=O)O [Example 113] |
|  | 1.8 | COc1ccc(/C=C/C(=O)NC[C@H](NC(=O)c2ccc(C(=O)NCc3cccc(O)c3)cc2Cl)C(=O)O)cc1 [Example 114] |
|  | 2.2 | O=C(/C=C/c1cccnc1)NC[C@H](NC(=O)c1ccc(C(=O)NCc2cccc(O)c2)cc1Cl)C(=O)O [Example 115] |
| 86 | 1.8 | O=C(/C=C/c1cccs1)NC[C@H](NC(=O)c1ccc(C(=O)NCc2cccc(O)c2)cc1Cl)C(=O)O [Example 116] |
| 131 | 3.6 | CC(=O)Oc1ccccc1C(=O)NC[C@H](NC(=O)c1ccc(C(=O)NCc2cccc(O)c2)cc1Cl)C(=O)O [Example 117] |
| 16 | 1.9 | Nc1cccc(C(=O)NC[C@H](NC(=O)c2ccc(C(=O)NCc3cccc(O)c3)cc2Cl)C(=O)O)c1 [Example 118] |
| 468 | 3 | NS(=O)(=O)c1ccc(C(=O)NC[C@H](NC(=O)c2ccc(C(=O)NCc3cccc(O)c3)cc2Cl)C(=O)O)cc1 [Example 119] |
|  | 4.9 | O=C(NCc1cccc(O)c1)c1ccc(C(=O)N[C@@H](CNC(=O)c2ccccc2Br)C(=O)O)c(Cl)c1 [Example 120] |
| 80 | 1.6 | O=C(NCc1cccc(O)c1)c1ccc(C(=O)N[C@@H](CNC(=O)c2cccc(Br)c2)C(=O)O)c(Cl)c1 [Example 121] |
|  | 2.8 | O=C(NCc1cccc(O)c1)c1ccc(C(=O)N[C@@H](CNC(=O)c2ccccc2Cl)C(=O)O)c(Cl)c1 [Example 122] |
| 20 | 0.8 | O=C(NCc1cccc(O)c1)c1ccc(C(=O)N[C@@H](CNC(=O)c2cccc(Cl)c2)C(=O)O)c(Cl)c1 [Example 123] |
|  | 3.3 | O=C(NCc1cccc(O)c1)c1ccc(C(=O)N[C@@H](CNC(=O)c2ccc(Cl)cc2)C(=O)O)c(Cl)c1 [Example 124] |
| 27 | 1.2 | N#Cc1cccc(C(=O)NC[C@H](NC(=O)c2ccc(C(=O)NCc3cccc(O)c3)cc2Cl)C(=O)O)c1 [Example 126] |
| 71 | 2.2 | CN(C)c1cccc(C(=O)NC[C@H](NC(=O)c2ccc(C(=O)NCc3cccc(O)c3)cc2Cl)C(=O)O)c1 [Example 127] |
|  | 4.2 | CN(C)c1ccc(C(=O)NC[C@H](NC(=O)c2ccc(C(=O)NCc3cccc(O)c3)cc2Cl)C(=O)O)cc1 [Example 128] |

| IC50 [1] [nM] | IC50 [2] [nM] | Compound |
| --- | --- | --- |
|  | 5 | CCOc1ccc(C(=O)NC[C@H](NC(=O)c2ccc(C(=O)NCc3cccc(O)c3)cc2Cl)C(=O)O)cc1 [Example 130] |
| 12 | 0.8 | O=C(NCc1cccc(O)c1)c1ccc(C(=O)N[C@@H](CNC(=O)c2cccc(F)c2)C(=O)O)c(Cl)c1 [Example 131] |
| 3.3 | 0.6 | O=C(NCc1cccc(O)c1)c1ccc(C(=O)N[C@@H](CNC(=O)c2cccc(O)c2)C(=O)O)c(Cl)c1 [Example 132] |
| 32 | 1.5 | O=C(NCc1cccc(O)c1)c1ccc(C(=O)N[C@@H](CNC(=O)c2cccc(I)c2)C(=O)O)c(Cl)c1 [Example 133] |
| 218 | 2.1 | COc1ccccc1C(=O)NC[C@H](NC(=O)c1ccc(C(=O)NCc2cccc(O)c2)cc1Cl)C(=O)O [Example 134] |
|  | 6.3 | COc1ccc(C(=O)NC[C@H](NC(=O)c2ccc(C(=O)NCc3cccc(O)c3)cc2Cl)C(=O)O)cc1 [Example 135] |
| 121 | 2 | COC(=O)c1cccc(C(=O)NC[C@H](NC(=O)c2ccc(C(=O)NCc3cccc(O)c3)cc2Cl)C(=O)O)c1 [Example 136] |
| 84 | 1.1 | Cc1ccccc1C(=O)NC[C@H](NC(=O)c1ccc(C(=O)NCc2cccc(O)c2)cc1Cl)C(=O)O [Example 137] |
| 17 | 0.7 | Cc1cccc(C(=O)NC[C@H](NC(=O)c2ccc(C(=O)NCc3cccc(O)c3)cc2Cl)C(=O)O)c1 [Example 138] |
|  | 4.8 | Cc1ccc(C(=O)NC[C@H](NC(=O)c2ccc(C(=O)NCc3cccc(O)c3)cc2Cl)C(=O)O)cc1 [Example 139] |
|  | 11 | CCCCCOc1ccc(C(=O)NC[C@H](NC(=O)c2ccc(C(=O)NCc3cccc(O)c3)cc2Cl)C(=O)O)cc1 [Example 143] |
|  | 6.6 | O=C(NCc1cccc(O)c1)c1ccc(C(=O)N[C@@H](CNC(=O)c2ccccc2Oc2ccccc2)C(=O)O)c(Cl)c1 [Example 144] |
|  | 15 | COc1cc(C(=O)NC[C@H](NC(=O)c2ccc(C(=O)NCc3cccc(O)c3)cc2Cl)C(=O)O)cc(OC)c1OC [Example 147] |
|  | 2.9 | O=C(NCc1cccc(O)c1)c1ccc(C(=O)N[C@@H](CNC(=O)c2ccc([N+](=O)[O-])o2)C(=O)O)c(Cl)c1 [Example 149] |
|  | 3.2 | Cc1cccc(C(=O)NC[C@H](NC(=O)c2ccc(C(=O)NCc3cccc(O)c3)cc2Cl)C(=O)O)n1 [Example 163] |
|  | 1.3 | O=C(NCc1cccc(O)c1)c1ccc(C(=O)N[C@@H](CNC(=O)c2cccnc2)C(=O)O)c(Cl)c1 [Example 165] |
|  | 5.2 | O=C(NCc1cccc(O)c1)c1ccc(C(=O)N[C@@H](CNS(=O)(=O)c2ccccc2)C(=O)O)c(Cl)c1 [Example 360, 3-(phenylsulfonylamino)-N-[2-chloro-4-[[[(3-hydroxyphenyl)methyl]amino]carbonyl]benzoyl]-L-alanine] |
|  | 8.8 | CC(=O)Nc1nc(C)c(S(=O)(=O)NC[C@H](NC(=O)c2ccc(C(=O)N[C@H](C)c3cccc4ccccc34)cc2Cl)C(=O)O)s1 [Example 362] |
|  | 7.7 | O=C(NCc1ccc(C(=O)N[C@@H](CNC(=O)c2ccccc2)C(=O)O)c(Cl)c1)c1cccc(O)c1 [Example 364, N-[2-chloro-4-[[(3-hydroxyphenyl)carbonyl]aminomethyl]benzoyl]-3-benzoylamino-L-alanine] |
|  | 18 | O=C(NC[C@H](NC(=O)c1ccc(CNC(=O)c2ccccc2O)cc1Cl)C(=O)O)c1ccccc1 [Example 365] |
|  | 3.4 | O=C(NCc1ccc(C(=O)N[C@@H](CNC(=O)c2ccccc2)C(=O)O)c(Cl)c1)c1cc(O)cc(O)c1 [Example 366] |
|  | 11 | O=C(NCc1ccc(C(=O)N[C@@H](CNC(=O)c2ccccc2)C(=O)O)c(Cl)c1)c1ccc2[nH]ccc2c1 [Example 368] |
|  | 8.5 | O=C(NCc1ccc(C(=O)N[C@@H](CNC(=O)c2ccccc2)C(=O)O)c(Cl)c1)c1ccc2cc[nH]c2c1 [Example 369] |
|  | 10 | N=C(N)NC[C@H](NC(=O)c1ccc(C(=O)NCc2cccc(O)c2)cc1Cl)C(=O)O [Example 371, N-[2-chloro-4-[[[(3-hydroxyphenyl)methyl]amino]-carbonyl]benzoyl]-3-(aminoiminomethyl)amino-L-alanine] |
|  | 7.7 | O=C(NC[C@H](NC(=O)c1ccc(/C=C/Cc2ccccc2)cc1Cl)C(=O)O)c1cccs1 [Example 373, N-[2-chloro-4-(3-phenyl-1-propenyl)benzoyl]-3-(thiophene-2-carbonyl)amino-L-alanine] |
|  | 19 | O=C(NC[C@H](NC(=O)c1ccc(C(=O)[C@H]2C[C@@H]2c2ccccc2)cc1Cl)C(=O)O)c1cccs1 [Example 377] |
|  | 9.7 | O=C(CCc1ccccc1)c1ccc(C(=O)N[C@@H](CNC(=O)c2cccs2)C(=O)O)c(Cl)c1 [Example 378] |
